These results are taken from ChEMBL document CHEMBL1212833, “Protein lysine methyltransferase G9a inhibitors: design, synthesis, and structure activity relationships of 2,4-diamino-7-aminoalkoxy-quinazolines” (J Med Chem, 2010).

SMILES strings stand for the structures. pIC50: −log10 of the molar value.

Assay [1] has as its target T1, Histone-lysine N-methyltransferase EHMT2 (Homo sapiens, UniProt Q96KQ7).
T1 sequence (Q96KQ7 whole entry): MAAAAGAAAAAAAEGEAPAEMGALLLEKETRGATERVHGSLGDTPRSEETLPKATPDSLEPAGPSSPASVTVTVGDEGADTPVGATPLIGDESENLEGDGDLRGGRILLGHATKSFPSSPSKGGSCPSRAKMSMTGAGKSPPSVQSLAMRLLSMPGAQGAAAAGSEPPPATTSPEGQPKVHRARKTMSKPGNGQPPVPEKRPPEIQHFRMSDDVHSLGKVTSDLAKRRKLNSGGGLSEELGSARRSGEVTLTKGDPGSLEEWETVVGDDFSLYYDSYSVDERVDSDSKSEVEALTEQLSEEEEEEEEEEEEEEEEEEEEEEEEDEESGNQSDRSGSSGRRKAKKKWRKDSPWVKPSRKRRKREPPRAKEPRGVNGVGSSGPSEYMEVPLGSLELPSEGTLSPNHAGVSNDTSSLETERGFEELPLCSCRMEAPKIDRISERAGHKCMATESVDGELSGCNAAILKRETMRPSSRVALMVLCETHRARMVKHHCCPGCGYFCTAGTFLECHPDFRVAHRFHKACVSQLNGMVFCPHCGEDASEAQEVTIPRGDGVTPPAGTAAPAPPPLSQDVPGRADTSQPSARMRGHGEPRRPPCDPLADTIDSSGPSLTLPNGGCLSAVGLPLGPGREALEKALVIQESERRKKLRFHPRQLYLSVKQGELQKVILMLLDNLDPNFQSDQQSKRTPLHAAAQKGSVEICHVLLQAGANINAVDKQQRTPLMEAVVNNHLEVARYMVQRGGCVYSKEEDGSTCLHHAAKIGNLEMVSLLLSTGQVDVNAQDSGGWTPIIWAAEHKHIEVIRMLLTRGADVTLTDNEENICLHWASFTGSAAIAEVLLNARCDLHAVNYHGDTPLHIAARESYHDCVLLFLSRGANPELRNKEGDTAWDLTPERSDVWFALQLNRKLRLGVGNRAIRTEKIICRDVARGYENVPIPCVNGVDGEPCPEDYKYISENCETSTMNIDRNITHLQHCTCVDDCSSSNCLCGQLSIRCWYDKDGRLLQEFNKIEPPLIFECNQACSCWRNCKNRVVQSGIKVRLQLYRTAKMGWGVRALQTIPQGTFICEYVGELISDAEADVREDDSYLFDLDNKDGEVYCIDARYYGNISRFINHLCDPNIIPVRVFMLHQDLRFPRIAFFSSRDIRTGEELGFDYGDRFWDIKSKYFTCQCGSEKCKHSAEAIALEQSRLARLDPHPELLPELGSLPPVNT
Briefly: Inhibition of methyl transferase activity of G9a assessed as inhibition of H3K9 methylation by chemiluminescence based oxygen tunneling assay.

The target of assay [2] is T1, Histone-lysine N-methyltransferase EHMT2. The assay can be described thus: Activity at methyl transferase activity G9a by enzyme coupled S-adenocylehomocystein detection assay.
Assay [3] deals with T2, Histone-lysine N-methyltransferase EHMT1 (Homo sapiens, UniProt Q9H9B1).
T2 sequence (Q9H9B1 whole entry): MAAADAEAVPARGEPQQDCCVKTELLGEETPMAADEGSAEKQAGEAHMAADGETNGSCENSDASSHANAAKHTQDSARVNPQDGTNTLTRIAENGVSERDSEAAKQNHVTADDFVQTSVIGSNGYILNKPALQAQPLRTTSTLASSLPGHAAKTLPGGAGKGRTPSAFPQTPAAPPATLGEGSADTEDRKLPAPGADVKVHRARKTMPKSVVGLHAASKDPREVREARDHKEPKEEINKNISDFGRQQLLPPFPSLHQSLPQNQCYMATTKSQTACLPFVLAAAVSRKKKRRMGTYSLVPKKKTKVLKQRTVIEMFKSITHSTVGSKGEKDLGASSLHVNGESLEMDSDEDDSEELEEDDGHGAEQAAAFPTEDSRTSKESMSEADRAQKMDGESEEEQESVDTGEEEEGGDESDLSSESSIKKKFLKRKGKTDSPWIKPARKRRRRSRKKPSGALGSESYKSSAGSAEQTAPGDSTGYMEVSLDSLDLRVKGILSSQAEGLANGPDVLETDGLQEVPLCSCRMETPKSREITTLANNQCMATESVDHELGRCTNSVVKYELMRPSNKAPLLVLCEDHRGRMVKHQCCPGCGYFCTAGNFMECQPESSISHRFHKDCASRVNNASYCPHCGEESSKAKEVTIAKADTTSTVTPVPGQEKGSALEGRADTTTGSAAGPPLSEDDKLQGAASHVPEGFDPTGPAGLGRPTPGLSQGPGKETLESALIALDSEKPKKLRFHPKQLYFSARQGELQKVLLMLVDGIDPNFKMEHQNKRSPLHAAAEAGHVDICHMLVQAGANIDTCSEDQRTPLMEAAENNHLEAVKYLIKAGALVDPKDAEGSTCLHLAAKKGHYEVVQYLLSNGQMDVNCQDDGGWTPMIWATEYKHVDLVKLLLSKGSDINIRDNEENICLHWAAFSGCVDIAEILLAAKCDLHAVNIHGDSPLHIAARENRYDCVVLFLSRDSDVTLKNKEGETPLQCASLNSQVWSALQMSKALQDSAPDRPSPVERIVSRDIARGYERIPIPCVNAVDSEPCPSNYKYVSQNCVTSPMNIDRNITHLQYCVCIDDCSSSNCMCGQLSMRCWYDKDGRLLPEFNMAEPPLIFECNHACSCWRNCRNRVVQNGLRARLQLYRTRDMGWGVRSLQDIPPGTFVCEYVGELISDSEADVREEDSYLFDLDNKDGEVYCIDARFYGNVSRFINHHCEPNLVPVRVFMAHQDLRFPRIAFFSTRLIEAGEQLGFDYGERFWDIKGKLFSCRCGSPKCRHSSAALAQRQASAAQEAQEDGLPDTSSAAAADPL
Briefly: Activity at methyl transferase activity GLP by enzyme coupled S-adenocylehomocystein detection assay.

For assay [4], the target named is T3, N-lysine methyltransferase KMT5A (Homo sapiens, UniProt Q9NQR1).
T3 sequence (Q9NQR1 whole entry): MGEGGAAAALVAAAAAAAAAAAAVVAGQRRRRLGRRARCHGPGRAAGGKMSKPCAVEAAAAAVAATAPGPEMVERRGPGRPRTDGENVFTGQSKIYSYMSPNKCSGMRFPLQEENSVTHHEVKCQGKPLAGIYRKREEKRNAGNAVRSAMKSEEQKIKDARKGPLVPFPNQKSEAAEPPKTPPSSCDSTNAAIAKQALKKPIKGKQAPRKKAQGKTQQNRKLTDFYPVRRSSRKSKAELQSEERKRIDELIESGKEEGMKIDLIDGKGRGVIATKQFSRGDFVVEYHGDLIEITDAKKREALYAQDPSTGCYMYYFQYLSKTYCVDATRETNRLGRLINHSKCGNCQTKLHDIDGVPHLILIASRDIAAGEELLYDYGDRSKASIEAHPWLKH
Briefly: Activity at methyl transferase activity SET8/preSet7 by enzyme coupled S-adenocylehomocystein detection assay.

Assay [5] has as its target T4, Histone-lysine N-methyltransferase SETD7 (Homo sapiens, UniProt Q8WTS6).
T4 sequence (Q8WTS6 whole entry): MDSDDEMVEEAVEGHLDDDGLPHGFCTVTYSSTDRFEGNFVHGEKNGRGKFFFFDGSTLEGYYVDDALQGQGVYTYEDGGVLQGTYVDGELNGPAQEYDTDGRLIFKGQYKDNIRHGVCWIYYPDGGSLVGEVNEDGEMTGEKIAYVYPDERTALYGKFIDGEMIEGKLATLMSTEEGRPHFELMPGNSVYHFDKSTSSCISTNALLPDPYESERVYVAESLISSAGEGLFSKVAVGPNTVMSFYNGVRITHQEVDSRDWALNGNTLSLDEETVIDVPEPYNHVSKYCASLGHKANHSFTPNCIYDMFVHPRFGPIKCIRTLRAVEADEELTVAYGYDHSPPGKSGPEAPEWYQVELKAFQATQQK
Briefly: Activity at methyl transferase activity SET7/9 by enzyme coupled S-adenocylehomocystein detection assay.

Assay [6] has as its target T2, Histone-lysine N-methyltransferase EHMT1. The assay can be described thus: Activity at methyl transferase activity GLP by chemiluminescence based oxygen tunneling assay.
Assay [7] is described as follows: Activity at methyl transferase activity JMJD2E by formaldehyde dehydrogenase-coupled assay.
The target in assay [8] is Protein arginine N-methyltransferase 3 (Homo sapiens, UniProt O60678). Briefly: Activity at methyl transferase activity PRMT3 by enzyme coupled S-adenocylehomocystein detection assay.
Chain of Protein arginine N-methyltransferase 3 (O60678 whole entry): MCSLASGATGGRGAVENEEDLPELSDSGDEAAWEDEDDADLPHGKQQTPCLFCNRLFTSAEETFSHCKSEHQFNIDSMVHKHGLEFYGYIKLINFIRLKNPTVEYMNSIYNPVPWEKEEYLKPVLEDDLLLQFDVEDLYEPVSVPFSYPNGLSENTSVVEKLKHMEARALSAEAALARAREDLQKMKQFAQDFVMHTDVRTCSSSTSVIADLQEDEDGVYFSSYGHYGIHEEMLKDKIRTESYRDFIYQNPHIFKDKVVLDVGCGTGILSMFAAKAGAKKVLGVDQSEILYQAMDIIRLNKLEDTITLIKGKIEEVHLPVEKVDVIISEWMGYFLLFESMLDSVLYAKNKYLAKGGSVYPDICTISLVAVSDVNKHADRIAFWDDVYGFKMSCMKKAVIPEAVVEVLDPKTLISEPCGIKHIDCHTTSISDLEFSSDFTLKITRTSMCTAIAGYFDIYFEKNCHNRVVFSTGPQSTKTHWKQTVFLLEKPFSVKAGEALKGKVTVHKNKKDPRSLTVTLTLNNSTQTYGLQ

Consider `CNc1nc(N2CCCN(C)CC2)nc2cc(OC)c(OC)cc12`, for which, in assay [1], the pIC50 was less than 5.00. For the compound `COc1cc2c(NC3CCN(C)CC3)nc(N3CCCN(C)CC3)nc2cc1OCCCCN(C)C`, the pIC50 in assay [1] was 6.96; in assay [2], 6.85.

Turning to `COc1cc2c(NC3CCN(C)CC3)nc(N3CCCN(C)CC3)nc2cc1OCCCCCN(C)C`, in assay [2], the pIC50 is 7.02. As to `CNCCCOc1cc2nc(N3CCCN(C)CC3)nc(NC3CCN(C)CC3)c2cc1OC`, in assay [2], the negative logarithm of the IC50 (pIC50) is 6.92. Consider `CCN(CC)CCCOc1cc2nc(N3CCCN(C)CC3)nc(NC3CCN(C)CC3)c2cc1OC`, for which the pIC50 in assay [2] is 7.28. Same read-out and setting: as for `CCCN(C)CCCOc1cc2nc(N3CCCN(C)CC3)nc(NC3CCN(C)CC3)c2cc1OC`, the figure is 7.29. As to `COc1cc2c(NC3CCN(C)CC3)nc(N3CCCN(C)CC3)nc2cc1OCCCN1CCOCC1`, the negative logarithm of the IC50 (pIC50) in assay [1] is 6.11; in assay [2], 6.06. Take `COCCCCOc1cc2nc(N3CCCN(C)CC3)nc(NC3CCN(C)CC3)c2cc1OC`: the pIC50 in assay [1] is less than 5.00.

Regarding `COc1cc2c(NC3CCN(C)CC3)nc(N3CCCN(C)CC3)nc2cc1OCCCCNC(=O)OC(C)(C)C`, the negative logarithm of the IC50 (pIC50) in assay [1] was less than 5.00. On to `COc1cc2c(NC3CCN(C)CC3)nc(N3CCCN(C)CC3)nc2cc1OCCCCCN`, for which the negative logarithm of the IC50 (pIC50) was 6.96 in assay [1] and 6.63 in assay [2]. As to `COc1cc2c(NC3CCN(C)CC3)nc(N3CCCN(C)CC3)nc2cc1OCCCCC(N)=O`, the pIC50 in assay [1] was less than 5.00. Turning to `COc1cc2c(NC3CCN(C)CC3)nc(N3CCCN(C)CC3)nc2cc1OCCOCCN(C)C`, the pIC50 is 7.82 in assay [3]; less than 4.40 in assay [4]; 8.22 in assay [1]; less than 4.40 in assay [5]; 7.64 in assay [6]; less than 4.24 in assay [7]. For the same compound, the negative-log IC50 (pIC50) in assay [8] is less than 4.40. Regarding `COc1cc2c(NC3CCN(C)CC3)nc(N3CCCN(C)CC3)nc2cc1OCCOCCN1CCCC1`, the pIC50 in assay [1] is 6.96; in assay [2] it was 7.24.

For the compound `COc1cc2c(NC3CCN(C)CC3)nc(N3CCCN(C)CC3)nc2cc1OCCN(C)CCN(C)C`, the pIC50 in assay [1] is 6.76; in assay [2], 6.46.

As for `COc1cc2c(NC3CCN(C)CC3)nc(N3CCCN(C)CC3)nc2cc1OCC1CCCNC1` (centres undefined), the figures for the pIC50 in assay [1] and in assay [2] were 5.29 and 5.82, respectively. Take `COc1cc2nc(N3CCCN(C)CC3)nc(N(C)C3CCN(C)CC3)c2cc1OC`: in assay [1], the negative-log IC50 (pIC50) was less than 5.00. On the same count and under the same terms, the same measure for `COc1cc2nc(N3CCCN(C)CC3)nc(OC3CCN(C)CC3)c2cc1OC`: less than 5.00.

`COc1cc2nc(N3CCCN(C)CC3)nc(NC3CCN(C)C3)c2cc1OC` (centres undefined): the pIC50 in assay [2] was 6.04. Regarding `COc1cc2c(NC3CCN(C)CC3)nc(N3CCCN(C)CC3)nc2cc1OCCCN(C)C`, the negative logarithm of the IC50 (pIC50) in assay [4] was less than 4.40; in assay [5], less than 4.40; in assay [7], less than 4.24; in assay [8], less than 4.40.

What is called pIC50 is −log10 of the IC50, conventionally taken in molar units.
